Measured values: US9267949B2, “Alkylamino BODIPY dyes as selective fluorescent probes for proteins and mouse embryonic stem cells” (National University of Singapore, priority 2011, dated 2016)

Assays:
[1] = Quantum yield measurements; format: physicochemical; details: referred to Rhodamine B in EtOH, excitation 510 nm, emission integrated 540-800 nm
Procedure, shortened: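 Integrated fluorescence emission from 540 to 800 nm was referenced to Rhodamine B in EtOH (Φ=0.70) after excitation at 510 nm. Quantum yield was calculated with correction for solvent refractive index and absorbance at the excitation wavelength.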

[2] = Spectroscopic properties of the BDM library (absorbance and emission maxima); format: physicochemical

φ (quantum yield) [1]	λmax (ABS) [2]	λmax (EM) [2]	SMILES
0.18	557 nm	568 nm	COc1cc(/C=C/C2=[N+]3C(=C(CCN)c4cccn4[B-]3(F)F)C(C)=C2)ccc1F [BDM-312]
0.10	556 nm	570 nm	COc1ccc(/C=C/C2=[N+]3C(=C(CCN)c4cccn4[B-]3(F)F)C(C)=C2)cc1F [BDM-314]
0.46	572 nm	610 nm	CCOc1ccc(/C=C/C2=[N+]3C(=C(CCN)c4cccn4[B-]3(F)F)C(C)=C2)c(OCC)c1 [BDM-316]
0.11	563 nm	576 nm	CC1=CC(/C=C/c2cc(F)ccc2O)=[N+]2C1=C(CCN)c1cccn1[B-]2(F)F [BDM-318]
0.21	558 nm	569 nm	CCOc1c(/C=C/C2=[N+]3C(=C(CCN)c4cccn4[B-]3(F)F)C(C)=C2)cccc1OC [BDM-320]
0.15	559 nm	577 nm	CC1=CC(/C=C/c2ccc(Oc3ccc(F)cc3)cc2)=[N+]2C1=C(CCN)c1cccn1[B-]2(F)F [BDM-322]
0.44	556 nm	570 nm	CCOc1cccc(/C=C/C2=[N+]3C(=C(CCN)c4cccn4[B-]3(F)F)C(C)=C2)c1 [BDM-323]
0.47	557 nm	573 nm	COc1c(/C=C/C2=[N+]3C(=C(CCN)c4cccn4[B-]3(F)F)C(C)=C2)cc(C(C)(C)C)cc1C(C)(C)C [BDM-325]
0.71	554 nm	565 nm	CC1=CC(/C=C/c2ccc(OC(F)F)cc2)=[N+]2C1=C(CCN)c1cccn1[B-]2(F)F [BDM-326]
0.65	554 nm	566 nm	CC1=CC(/C=C/c2cc(OCc3ccccc3)cc(OCc3ccccc3)c2)=[N+]2C1=C(CCN)c1cccn1[B-]2(F)F [BDM-331]
0.61	552 nm	562 nm	CC1=CC(/C=C/c2ccc3c(c2)OC(F)(F)O3)=[N+]2C1=C(CCN)c1cccn1[B-]2(F)F [BDM-332]
0.30	557 nm	575 nm	CSc1ccccc1/C=C/C1=[N+]2C(=C(CCN)c3cccn3[B-]2(F)F)C(C)=C1 [BDM-333]
0.78	565 nm	591 nm	COc1ccc(/C=C/C2=[N+]3C(=C(CCN)c4cccn4[B-]3(F)F)C(C)=C2)cc1C [BDM-335]
0.58	560 nm	577 nm	CCOc1ccccc1/C=C/C1=[N+]2C(=C(CCN)c3cccn3[B-]2(F)F)C(C)=C1 [BDM-336]
0.11	534 nm	541 nm	CC1=CC(/C=C/c2c3ccccc3c(C)c3ccccc23)=[N+]2C1=C(CCN)c1cccn1[B-]2(F)F [BDM-340]
0.37	556 nm	570 nm	CC1=CC(/C=C/c2ccccc2Oc2ccc(F)cc2)=[N+]2C1=C(CCN)c1cccn1[B-]2(F)F [BDM-341]
0.28	559 nm	577 nm	CC1=CC(/C=C/c2cc(C)c(C)cc2C)=[N+]2C1=C(CCN)c1cccn1[B-]2(F)F [BDM-343]
0.22	551 nm	564 nm	CC1=CC(/C=C/c2cccc(OC(F)(F)C(F)F)c2)=[N+]2C1=C(CCN)c1cccn1[B-]2(F)F [BDM-345]
0.57	566 nm	591 nm	COc1ccc(/C=C/C2=[N+]3C(=C(CCN)c4cccn4[B-]3(F)F)C(C)=C2)c(OC)c1C [BDM-347]
